Tests used:
[1] = tested on: E0771 tumor microenvironment; test: analysis of tumors and splenocytes from EnnA-treated mice (Western blot, FACS, immunohistochemistry, immunofluorescence); type: in vivo
Method: FIG. 5A is a line graph of tumor volume (mm^3) versus time (days) of mice injected with 100,000 E0771. Ten days after surgery, mice were divided into two groups: the EnnA group was injected with 10 mg/kg of EnnA. every other day, and the control group received a mixture of 15% DMSO and 20% cremophor in PBS. FIG. 5B is a line graph of body weight versus time (days) of mice treated with DMSO or EnnA. FIG. 5C is autoradiograph of a Western blot of four animals from each group using the indicated specific antibodies. FIG. 5D is a bar graph of % of gated cells treated with DMSO or EnnA showing FACS analysis of tumor cells for PDL1. FIG. 5E-5J is a panel of micrographs showing immunohistochemistry analysis of H&E staining of tumors from control and EnnA mice for analysis of necrotic tissue. FIGS. 5K-5P is a panel of micrographs showing immunohistochemistry analysis of tumors from control and EnnA mice for analysis of immune cells infiltration using anti-CD45 antibody. FIG. 5Q is a bar graph of % of gated cells treated with DMSO showing that EnnA treatment reduces CD4+/Foxp3+ Tregs. FIG. 5R is a bar graph of % of gated cells treated with DMSO or EnnA showing that EnnA treatment reduces CD11b+Gr-1+ MDSCs. FIG. 5S is a bar graph of % of gated cells treated with DMSO or EnnA showing that EnnA treatment reduces the number of CD8+/PD-1+ lymphocytes. FIG. 5T is a bar graph of % of cells treated with DMSO or EnnA showing that EnnA treatment increase the number of GR-1-CD11c+CD103+ lymphocytes.
FIGS. 8A-8L show immunofluorescent staining of E0771 tumors using anti-CD45 and anti-CD8β antibodies. FIGS. 8M-8T show immunofluorescent staining of E0771 tumors using anti-CD45 and anti-CTLA-4 antibodies. […] FIG. 8V is a bar graph showing the results of FACS analysis of CD8 positive cells in E0771 tumor-bearing mice treated with DMSO, EnnA, αCD8, or EnnA+αCD8. The X axis represents treatment group and the Y axis represents percent CD8 positive cells. FIG. 8W is a model for EnnA inhibition of Hsp 90 machinery and its impacts on the immune suppressive mechanism through PD-1 and IDO.
100,000 E0771 cells were surgically implanted in mammary fat pad of 20 mice. Ten days after surgery, mice were divided into two groups: the EnnA group was injected with 10 mg/kg of EnnA every other day, and the control group received a mixture of 15% DMSO and 20% cremophor in PBS.

[2] = tested on: Hsp90 chaperoning machine; test: progesterone receptor (PR) refolding assay using reticulocyte lysate (RRL); type: biochemical; settings: 10 μM EnnA
From the text: (§1) The first bar indicates 100% folding activity of RRL without inhibitor. PR22 indicates the antibody without PR but with RRL and EnnA. PR represents the antibody (PR22) with PR but without RRL. All other samples have PR22, PR, and RRL without (first bar) or with increased concentration of EnnA. FIGS. 1C-1E are line graphs of cell survival versus EnnA concentration (μM) in breast cancer cell lines Hs578T (FIG. 1C), […] (FIG. 1D) and MDA-MB231 (FIG. 1E) upon treatment with EnnA for 48 and 72 h. […] PR alone (PR), antibody (PR22)+RRL, PR+RRL without inhibitor (RRL), PR+RRL with 1 μM 17-AAG (17AAG) PR+RRL with 10 μM BEAU or EnnA. FIGS. 1G-1I are autoradiographs of Western blots of cytosols from various cell lines treated with 17-AAG (1 μM) or EnnA (3 μM) with antibodies against the specified proteins. FIG. 1J is an autoradiograph showing EnnA causes autophagy in Hs578T and MDA-MB453 cell lines. FIGS. 1K-1N are electron microscopy micrographs showing autophagosomes and reduced mitochondria content in Hs578T cells treated with DMSO or EnnA. FIGS. 1O-1P are fluorescence micrographs showing EnnA causing reduced mitochondria content in Hs578T cells. FIGS. 1Q-1BB are fluorescence micrographs showing mitophagy in Hsp578T cells treated with EnnA as indicated by colocalization of the mitochondria marker Cox4 and the autophagy marker LC3BII.
A cell-free high-throughput screen (HTS) platform based on the progesterone receptor (PR) using reticulocyte lysate (RRL) as a source of molecular chaperones was used to screen 175 natural products (Patwardhan C A, et al., J Biomol Screen (2014)). This assay captures the physiological steps of PR refolding by the Hsp90 chaperoning machine and measures the recovery of its hormone-binding activities after mild heat treatment. It has the ability to identify inhibitors as well as activators of the core components of the Hsp90 chaperoning machine (i.e., Hsp90, Hsp70, Hsp40, Hsp90/Hsp70 organizing protein (HOP), and p23), including compounds that target chaperone complexes as well as individual proteins.

[3] = tested on: Hsp90 client proteins, Hsp70, Hsp27; test: Western blots of cytosols from cell lines treated with 17-AAG or EnnA; type: cell-based, human
From the text: as §1

Question: How did the “PD-1 expression of infiltrating CD8+ lymphocytes” value ([1]; FACS) turn out when CC[C@H](C)[C@H]1C(=O)O[C@H](C(C)C)C(=O)N(C)[C@@H]([C@@H](C)CC)C(=O)O[C@H](C(C)C)C(=O)N(C)[C@@H]([C@@H](C)CC)C(=O)O[C@H](C(C)C)C(=O)N1C [EnnA, Enniatin A] was run?
Answer: lower levels

Question: And the “number of CD4+Foxp3+ T regulatory cells (Tregs) in tumors” value ([1]; FACS)?
Answer: significantly reduced

Question: What about the “number of MDSCs in tumors” value ([1]; FACS, CD11b+Gr-1+) of the same molecule?
Answer: significantly reduced

Question: And the “number of GR-1-CD11c+CD103+ lymphocytes” value ([1]; FACS, FIG. 5T)?
Answer: increase

Question: And the tumor necrosis ([1]; H&E staining)?
Answer: heavily necrotic

Question: What about the “Hsp90 client proteins in tumors” value ([1]; Western blot of tumors from treated mice) of the same molecule?
Answer: destabilized

Question: What about the “infiltration of tumors by T lymphocytes” value ([1]; anti-CD45 immunohistochemistry) of the same molecule?
Answer: massive infiltration

Question: And the “infiltration of tumors with CD45+, CD8β+ T cells” value ([1]; immunofluorescent staining)?
Answer: higher infiltration

Question: What about the “proportion of CD8β cells in spleenocytes” value ([1]; tumor bearing animals, FACS) of the same molecule?
Answer: increase

Question: And the “PD-L1 and IDO in vivo” value ([1]; tumors, Western blot and FACS)?
Answer: destabilizes

Question: And the “level of Hsp90 in PR complexes” value ([2]; protein complex analysis after PR reconstitution)?
Answer: reduces

Question: And the “accumulation of Hsp70-rich PR complexes” value ([2]; protein complex analysis, 1 μM 17-AAG)?
Answer: does not induce

Question: And the “stability of Hsp90 client proteins” value ([3]; EnnA 3 μM)?
Answer: destabilization

Question: And the “induction of Hsp27” value ([3]; MAD-MB-453 cells)?
Answer: slightly induced

Question: And the “overexpression of Hsp70” value ([3]; all cell lines tested, EnnA 3 μM)?
Answer: does not induce overexpression

— patent US11446352B2, “Compositions and methods for inhibiting tumor-induced immune suppression” (priority 2017, dated 2022)
